ChEMBL document CHEMBL1201862, “PubChem BioAssay data set” (2004)
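Cells were grown in 96-well plates and exposed to each compound for 48 hours at five concentrations; endpoints were interpolated linearly between bracketing concentrations, or set to the highest concentration if not reached. GI50: concentration for 50% inhibition of growth.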 Calls of active or inactive are those of the source. Cut-off read from the data, not from the text of the source: active = GI50 up to about 1.1 µM and inactive = higher.

Legend:
Test in all cases: NCI anticancer screen, dose series, 48 h
K562 = tested on: K562
RXF 393 = tested on: RXF 393
OVCAR-3 = tested on: OVCAR-3
OVCAR-4 = tested on: OVCAR-4
SK-MEL-5 = tested on: SK-MEL-5
OVCAR-8 = tested on: OVCAR-8
SK-MEL-28 = tested on: SK-MEL-28
IGROV-1 = tested on: IGROV-1
U-251 = tested on: U-251
MDA-N = tested on: MDA-N
PC-3 = tested on: PC-3
M14 = tested on: M14
Hs-578T = tested on: Hs-578T
HCT-15 = tested on: HCT-15
SF-295 = tested on: SF-295
KM12 = tested on: KM12
SNB-19 = tested on: SNB-19
HT-29 = tested on: HT-29
OVCAR-5 = tested on: OVCAR-5
UACC-257 = tested on: UACC-257
CAKI-1 = tested on: CAKI-1
MCF7 = tested on: MCF7
SK-MEL-2 = tested on: SK-MEL-2
MDA-MB-435 = tested on: MDA-MB-435
SK-OV-3 = tested on: SK-OV-3
TK-10 = tested on: TK-10
EKVX = tested on: EKVX
COLO 205 = tested on: COLO 205
SN12C = tested on: SN12C
A498 = tested on: A498
A549 = tested on: A549
HCT-116 = tested on: HCT-116
MOLT-4 = tested on: MOLT-4
DU-145 = tested on: DU-145
SF-268 = tested on: SF-268
ACHN = tested on: ACHN
UACC-62 = tested on: UACC-62
NCI-H226 = tested on: NCI-H226
786-0 = tested on: 786-0
BT-549 = tested on: BT-549
NCI-H23 = tested on: NCI-H23
NCI/ADR-RES = tested on: NCI/ADR-RES
RPMI-8226 = tested on: RPMI-8226
HOP-92 = tested on: HOP-92
LOX IMVI = tested on: LOX IMVI
SW-620 = tested on: SW-620
HOP-62 = tested on: HOP-62
UO-31 = tested on: UO-31
NCI-H522 = tested on: NCI-H522
SR = tested on: SR
MDA-MB-231 = tested on: MDA-MB-231
Malme-3M = tested on: Malme-3M
T47D = tested on: T47D
SNB-75 = tested on: SNB-75
CCRF-CEM = tested on: CCRF-CEM
SF-539 = tested on: SF-539
NCI-H460 = tested on: NCI-H460
HL-60 = tested on: HL-60
HCC 2998 = tested on: HCC 2998

Measured: GI50

Oc1c(Br)cc(Br)cc1CN(Cc1cc(Br)cc(Br)c1O)C1CCCCC1
31.9 µM: HCT-15
inactive: K562 31.6 µM | RXF 393 31.3 µM | OVCAR-3 15.1 µM | OVCAR-4 46.9 µM | SK-MEL-5 16.9 µM | OVCAR-8 31.1 µM | SK-MEL-28 48.1 µM | IGROV-1 34.1 µM | U-251 24.9 µM | MDA-N 35.9 µM | PC-3 21.1 µM | M14 34.3 µM | Hs-578T 17.2 µM | SF-295 21.2 µM | KM12 31.9 µM | SNB-19 33.6 µM | HT-29 23.7 µM | OVCAR-5 37.6 µM | UACC-257 19.5 µM | CAKI-1 34.9 µM | MCF7 25.5 µM | SK-MEL-2 20.2 µM | MDA-MB-435 31.3 µM | SK-OV-3 44.6 µM | TK-10 26.4 µM | EKVX 30.5 µM | COLO 205 14.7 µM | SN12C 33.2 µM | A498 26.7 µM | A549 30.9 µM | HCT-116 33.4 µM | MOLT-4 43.4 µM | DU-145 38 µM | SF-268 22 µM | ACHN 31.1 µM | UACC-62 31.3 µM | NCI-H226 59.4 µM | 786-0 41.1 µM | BT-549 33.1 µM | NCI-H23 23.2 µM | NCI/ADR-RES 39.9 µM | RPMI-8226 30.2 µM | HOP-92 32.5 µM | LOX IMVI 31.9 µM | SW-620 29.7 µM | HOP-62 24.4 µM | UO-31 31.7 µM | NCI-H522 15.3 µM | SR 32.4 µM | MDA-MB-231 26.4 µM | Malme-3M 21.2 µM | T47D 32.4 µM | SNB-75 24.6 µM

CCN(CC)c1ccc2cc(C(N)=S)c(=N)oc2c1
inactive: K562 > 100 µM | RXF 393 > 100 µM | OVCAR-4 > 100 µM | SK-MEL-5 > 100 µM | OVCAR-8 > 100 µM | SK-MEL-28 > 100 µM | CCRF-CEM > 100 µM | IGROV-1 > 100 µM | U-251 > 100 µM | MDA-N > 100 µM | PC-3 > 100 µM | M14 > 100 µM | Hs-578T > 100 µM | SF-295 > 100 µM | KM12 > 100 µM | SNB-19 > 100 µM | HT-29 > 100 µM | OVCAR-5 > 100 µM | UACC-257 > 100 µM | CAKI-1 > 100 µM | MCF7 > 100 µM | SK-MEL-2 > 100 µM | MDA-MB-435 > 100 µM | SF-539 > 100 µM | SK-OV-3 > 100 µM | TK-10 > 100 µM | NCI-H460 > 100 µM | EKVX > 100 µM | COLO 205 > 100 µM | SN12C > 100 µM | A549 > 100 µM | HCT-116 > 100 µM | MOLT-4 > 100 µM | DU-145 > 100 µM | SF-268 > 100 µM | ACHN > 100 µM | HL-60 > 100 µM | UACC-62 > 100 µM | NCI-H226 > 100 µM | 786-0 > 100 µM | BT-549 37.9 µM | NCI/ADR-RES > 100 µM | RPMI-8226 > 100 µM | HOP-92 > 100 µM | LOX IMVI > 100 µM | SW-620 > 100 µM | HOP-62 > 100 µM | UO-31 > 100 µM | NCI-H522 > 100 µM | SR > 100 µM | MDA-MB-231 > 100 µM | Malme-3M 87.9 µM | T47D > 100 µM | HCC 2998 > 100 µM | SNB-75 > 100 µM
> 100 µM: HCT-15

COc1cccc2cc(C(=O)Nc3ccccc3)c(=N)oc12
> 100 µM: HCT-15
inactive: K562 > 100 µM | RXF 393 > 100 µM | OVCAR-3 > 100 µM | OVCAR-4 > 100 µM | SK-MEL-5 > 81.3 µM | OVCAR-8 > 46.6 µM | SK-MEL-28 > 100 µM | CCRF-CEM > 21.8 µM | IGROV-1 49.5 µM | U-251 67.6 µM | MDA-N > 100 µM | PC-3 > 100 µM | M14 > 100 µM | Hs-578T 10.4 µM | SF-295 > 100 µM | KM12 > 29.6 µM | SNB-19 > 75.9 µM | HT-29 > 100 µM | OVCAR-5 > 100 µM | UACC-257 > 100 µM | MCF7 5.93 µM | SK-MEL-2 > 100 µM | MDA-MB-435 > 100 µM | SF-539 > 100 µM | SK-OV-3 > 64 µM | TK-10 > 100 µM | NCI-H460 > 100 µM | EKVX > 100 µM | COLO 205 > 100 µM | SN12C > 100 µM | A498 > 100 µM | A549 > 100 µM | HCT-116 24.3 µM | MOLT-4 > 100 µM | DU-145 > 100 µM | SF-268 > 85.9 µM | ACHN > 100 µM | UACC-62 62.4 µM | NCI-H226 > 100 µM | 786-0 15.7 µM | BT-549 > 100 µM | NCI-H23 > 69.2 µM | NCI/ADR-RES > 100 µM | RPMI-8226 > 100 µM | HOP-92 22.2 µM | LOX IMVI > 100 µM | SW-620 > 100 µM | HOP-62 > 58.5 µM | UO-31 > 48.1 µM | NCI-H522 > 28.2 µM | SR > 71 µM | MDA-MB-231 13 µM | Malme-3M > 100 µM | T47D 6.01 µM | SNB-75 16.7 µM
